Reference: patent US8802597B2, “Herbicidal pyrimidines” (E I du Pont de Nemours and Company, priority 2003, dated 2014)

Assays:
Format in all cases: in vivo
[1] = test system: crabgrass (Digitaria sanguinalis); experiment: Test A pre/postemergence
Outline: (§1)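 Seeds sown in loam–sand blend received a preemergence directed soil spray of test chemical in non-phytotoxic solvent with surfactant; same-formulation postemergence spray given concurrently to plants 2–10 cm tall at 1- to 2-leaf stage. Greenhouse ~ten days, then visual injury rating versus untreated controls, 0 (no effect) to 100 (complete control).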

[2] = test system: barnyardgrass (Echinochloa crus-galli); experiment: Test A pre/postemergence
Outline: as §1

[3] = test system: woolly cupgrass (Eriochloa villosa); experiment: Test C pre/postemergence; settings: Preemergence
Outline: (§2)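 Applications: preemergence onto seeded soil and postemergence onto 1- to 4-leaf seedlings, compound carried in non-phytotoxic solvent plus surfactant. Kept in greenhouse 12 to 14 days. Scored visually relative to untreated controls, 0 (no effect) to 100 (complete control).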

[4] = test system: goosegrass (Eleusine indica); experiment: Test C pre/postemergence; settings: Preemergence
Outline: as §2

[5] = test system: pigweed (Amaranthus retroflexus); experiment: Test C pre/postemergence; settings: Preemergence
Outline: as §2

[6] = test system: velvetleaf (Abutilon theophrasti); experiment: Test C pre/postemergence; settings: Preemergence
Outline: as §2

[7] = test system: yellow nutsedge (Cyperus esculentus); experiment: Test C pre/postemergence; settings: Preemergence
Outline: as §2

[8] = test system: common ragweed (Ambrosia elatior); experiment: Test C pre/postemergence; settings: Preemergence
Outline: as §2

[9] = test system: bermudagrass (Cynodon dactylon); experiment: Test C pre/postemergence; settings: Preemergence
Outline: as §2

[10] = Postemergence, 125 g ai/ha, 0 to 100 scale (0 no effect, 100 complete control)
[11] = Postemergence, 500 g ai/ha, 0 to 100 scale (0 no effect, 100 complete control)
[12] = Preemergence, 125 g ai/ha, 0 to 100 scale where 0 is no effect and 100 is complete control, approximately ten days
[13] = Preemergence, 500 g ai/ha, 0 to 100 scale where 0 is no effect and 100 is complete control, approximately ten days
[14] = 16 g ai/ha, scale 0 to 100, 0 no effect, 100 complete control
[15] = 31 g ai/ha, scale 0 to 100, 0 no effect, 100 complete control
[16] = 62 g ai/ha, scale 0 to 100, 0 no effect, 100 complete control

SMILES | Plant response rating, Cupgrass, Woolly [3, 15] | Plant response rating, Cupgrass, Woolly [3, 16] | Plant response rating, Cupgrass, Woolly ([3]; 125 g ai/ha, scale 0 to 100) | Plant response rating, Goosegrass [4, 15] | Plant response rating, Goosegrass [4, 16] | Plant response rating, Goosegrass ([4]; 125 g ai/ha, scale 0 to 100) | Plant response rating, Pigweed [5, 15] | Plant response rating, Pigweed [5, 16] | Plant response rating, Velvetleaf [6, 15] | Plant response rating, Velvetleaf [6, 16] | Plant response rating, Nutsedge, Yellow [7, 15] | Plant response rating, Nutsedge, Yellow [7, 16] | Plant response rating, Ragweed [8, 15] | Plant response rating, Ragweed [8, 16] | Plant response rating, Bermudagrass [9, 15] | Plant response rating, Bermudagrass [9, 16] | Plant response rating, Bermudagrass ([9]; 125 g ai/ha, scale 0 to 100) | Plant response rating, Cupgrass, Woolly ([3]; 250 g ai/ha, scale 0 to 100) | Plant response rating, Goosegrass ([4]; 250 g ai/ha, scale 0 to 100) | Plant response rating, Pigweed ([5]; 125 g ai/ha, scale 0 to 100) | also measured
CCCOC(=O)c1nc(C2CC2)nc(N)c1Cl [Compound 75] | 0 | 60 | 60 | 0 | 0 | 30 | 75 | 80 | 60 | 85 | 0 | 0 | 70 | 80 | 0 | 0 | 20 | – | – | – | Plant response rating, Crabgrass [1, 10]: 80; Plant response rating, Crabgrass [1, 11]: 90; Plant response rating, Crabgrass [1, 12]: 85; Plant response rating, Crabgrass [1, 13]: 90; Plant response rating, Barnyardgrass [2, 10]: 85; Plant response rating, Barnyardgrass [2, 11]: 90; Plant response rating, Barnyardgrass [2, 12]: 70; Plant response rating, Barnyardgrass [2, 13]: 95; Plant response rating, Cupgrass, Woolly [3, 14]: 0; Plant response rating, Goosegrass [4, 14]: 0; Plant response rating, Pigweed [5, 14]: 70; Plant response rating, Velvetleaf [6, 14]: 5; Plant response rating, Nutsedge, Yellow [7, 14]: 0; Plant response rating, Ragweed [8, 14]: 20; Plant response rating, Ragweed ([8]; scale 0 to 100, 0 no effect, 100 complete control): 90; Plant response rating, Bermudagrass [9, 14]: 0
CCOC(=O)C(Cl)c1nc(C2CC2)nc(N)c1Br (stereo not shown) [Compound 31] | 0 | 0 | 0 | 0 | 0 | 0 | 10 | 30 | 0 | 0 | 0 | 0 | 5 | 10 | 0 | 0 | 0 | 0 | 20 | 35 | Plant response rating, Pigweed ([5]; 250 g ai/ha, scale 0 to 100): 40; Plant response rating, Velvetleaf ([6]; 125 g ai/ha, scale 0 to 100): 0; Plant response rating, Velvetleaf ([6]; 250 g ai/ha, scale 0 to 100): 60; Plant response rating, Nutsedge, Yellow ([7]; 125 g ai/ha, scale 0 to 100): 0; Plant response rating, Nutsedge, Yellow ([7]; 250 g ai/ha, scale 0 to 100): 0; Plant response rating, Ragweed ([8]; 125 g ai/ha, scale 0 to 100): 60; Plant response rating, Ragweed ([8]; 250 g ai/ha, scale 0 to 100): 60; Plant response rating, Bermudagrass ([9]; 250 g ai/ha, scale 0 to 100): 0
CCOC(=O)Cc1nc(C2CC2)nc(N)c1Br [Compound 12] | 0 | 0 | 10 | 0 | 0 | 0 | 10 | 50 | 0 | 5 | 0 | 0 | – | 10 | 0 | 0 | 0 | 100 | 0 | 50 | Plant response rating, Pigweed ([5]; 250 g ai/ha, scale 0 to 100): 85; Plant response rating, Velvetleaf ([6]; 125 g ai/ha, scale 0 to 100): 50; Plant response rating, Velvetleaf ([6]; 250 g ai/ha, scale 0 to 100): 70; Plant response rating, Nutsedge, Yellow ([7]; 125 g ai/ha, scale 0 to 100): 0; Plant response rating, Nutsedge, Yellow ([7]; 250 g ai/ha, scale 0 to 100): 0; Plant response rating, Ragweed ([8]; 125 g ai/ha, scale 0 to 100): 20; Plant response rating, Ragweed ([8]; 250 g ai/ha, scale 0 to 100): 85; Plant response rating, Bermudagrass ([9]; 250 g ai/ha, scale 0 to 100): 20
